In patent US20060116390A1, “Hepatitis c virus inhibitors” (priority 2003, published 2006):
Where two headings read alike, the source gives them in different places.

Tested on: HCV proteins in Rep5.1 cells (replicon cell line)
Test: Inhibitory activity of HCV: cell-based ELISA in replicon cell line Rep5.1 (decrease of HCV proteins)
Design: species or system hepatitis C virus
Settings: Rep5.1 cells, 72 hours with drug
Method in brief: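 Rep5.1 replicon cells (5000/well, DMEM-10 with 500 μg/ml G418) were given serially diluted drug 4 h after seeding. After 72 h, cells were fixed in methanol/acetone and HCV proteins detected by cell-based ELISA using replicon-specific patient plasma antibodies. IC50 is the concentration giving 50% protein decrease versus the no-drug control.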

[1] = Hepatitis C virus, 72 h, concentration at which 50% of HCV proteins was decreased, Table 2, read-out: IC50
[2] = Hepatitis C virus, 72 h, decrease of HCV proteins measured by HCV antibody, Table 1, read-out: Level (IC50 values classified)
[3] = concentration at which 50% of HCV proteins was decreased, Table 2, read-out: IC50

| Compound | IC50 [1] [nM] | IC50 [2] [nM] | IC50 [3] [nM] |
| --- | --- | --- | --- |
| CC(=O)OCC1NC(=S)NC(C)=C1C(=O)OCCc1ccsc1 (centres unmarked) [21″, 4-acetoxymethyl-6-methyl-2-thioxo-1,2,3,4-tetrahydro-pyrimidine-5-carboxylic acid 2-thiophen-3-yl-ethyl ester] | > 100000 | > 20000 | – |
| CC1=C(C(=O)OCc2ccc3nnn(C)c3c2)CNC(=S)N1 [Compound 242, 6-methyl-2-thioxo-1,2,3,4-tetrahydro-pyrimidine-5-carboxylic acid 3-methyl-3H-benzotriazol-5-ylmethyl ester] | 63000 | > 20000 | – |
| CCOc1ccc(COC(=O)C2=C(C)NC(=S)NC2)cc1 [Compound 71, 6-methyl-2-thioxo-1,2,3,4-tetrahydro-pyrimidine-5-carboxylic acid 4-ethoxy-benzyl ester] | 2500 | 1000 to 10000 | – |
| CC1=C(C(=O)OCc2ccc(Br)s2)CNC(=S)N1 [Compound 203, 6-methyl-2-thioxo-1,2,3,4-tetrahydro-pyrimidine-5-carboxylic acid 5-bromo-thiophen-2-ylmethyl ester] | < 400 | < 1000 | – |
| CC1=C(C(=O)OCCc2ccc(F)c(F)c2)C(CO)NC(=S)N1 (centres unmarked) [68″, 4-hydroxymethyl-6-methyl-2-thioxo-1,2,3,4-tetrahydro-pyrimidine-5-carboxylic acid 2-(3,4-difluoro-phenyl)-ethyl ester] | 2700 | 1000 to 10000 | – |
| CSc1ccc(CCCOC(=O)C2=C(C)NC(=S)NC2)cc1 [Compound 105, 6-methyl-2-thioxo-1,2,3,4-tetrahydro-pyrimidine-5-carboxylic acid 3-(4-methylsulfanyl-phenyl)-propyl ester] | < 400 | < 1000 | – |
| CC1=C(C(=O)OCCC2CCc3ccccc32)CNC(=S)N1 (centres unmarked) [Compound 126, 6-methyl-2-thioxo-1,2,3,4-tetrahydro-pyrimidine-5-carboxylic acid 2-indan-1-yl-ethyl ester] | < 400 | < 1000 | – |
| CC1=C(C(=O)OCc2ccc(Cl)s2)CNC(=S)N1 [Compound 233, 6-methyl-2-thioxo-1,2,3,4-tetrahydro-pyrimidine-5-carboxylic acid 5-chloro-thiophen-2-ylmethyl ester] | 200 | < 1000 | – |
| CC1=C(C(=O)OCCc2c(F)cccc2Cl)C(CO)NC(=S)N1 (centres unmarked) [59″, 4-hydroxymethyl-6-methyl-2-thioxo-1,2,3,4-tetrahydro-pyrimidine-5-carboxylic acid 2-(2-chloro-6-fluoro-phenyl)-ethyl ester] | 2500 | 1000 to 10000 | – |
| CC1=C(C(=O)OCc2ccccn2)CNC(=S)N1 [Compound 154, 6-methyl-2-thioxo-1,2,3,4-tetrahydro-pyrimidine-5-carboxylic acid pyridin-2-ylmethyl ester] | > 100000 | > 20000 | – |
| CC1=C(C(=O)OCCc2ccsc2)C(C(F)F)NC(=S)N1 (centres unmarked) [80′, 4-difluoromethyl-6-methyl-2-thioxo-1,2,3,4-tetrahydro-pyrimidine-5-carboxylic acid 2-thiophen-3-yl-ethyl ester] | 11000 | 10000 to 20000 | – |
| CC1=C(C(=O)OCCCCCCCCc2ccccc2)CNC(=S)N1 [Compound 33, 6-methyl-2-thioxo-1,2,3,4-tetrahydro-pyrimidine-5-carboxylic acid 8-phenyl-octyl ester] | < 500 | < 1000 | – |
| CC1=C(C(=O)OCC=Cc2ccccc2)CNC(=S)N1 [Compound 54, 6-methyl-2-thioxo-1,2,3,4-tetrahydro-pyrimidine-5-carboxylic acid 3-phenyl-allyl ester] | < 500 | < 1000 | – |
| O=C(OCCc1ccsc1)C1=CNC(=S)NC1 [Compound 261, 2-thioxo-1,2,3,4-tetrahydro-pyrimidine-5-carboxylic acid 2-thiophen-3-yl-ethyl ester] | 800 | < 1000 | – |
| O=C(OCc1ccccc1)C1=C(CCc2ccccc2)NC(=S)NC1 [Compound 19, 6-phenethyl-2-thioxo-1,2,3,4-tetrahydro-pyrimidine-5-carboxylic acid benzyl ester] | 1600 | < 1000 | – |
| CC1=C(C(=O)OCc2ccc(-c3ccccc3)cc2)CNC(=S)N1 [Compound 22, 6-methyl-2-thioxo-1,2,3,4-tetrahydro-pyrimidine-5-carboxylic acid biphenyl-4-ylmethyl ester] | 400 | < 1000 | – |
| CC1=C(C(=O)OCCc2cccc([N+](=O)[O-])c2)C(COC(=O)OCC2COC(C)(C)O2)NC(=S)N1 (centres unmarked) [77″, 4-(2,2-dimethyl-[1,3]dioxolan-4-ylmethoxycarbonyloxymethyl)-6-methyl-2-thioxo-1,2,3,4-tetrahydro-pyrimidine-5-carboxylic acid 2-(3-nitro-phenyl)-ethyl ester] | 5600 | 1000 to 10000 | – |
| COc1ccc(COC(=O)C2=C(C)NC(=S)NC2)c(OC)c1C [Compound 137, 6-methyl-2-thioxo-1,2,3,4-tetrahydro-pyrimidine-5-carboxylic acid 2,4-dimethoxy-3-methyl-benzyl ester] | 10000 | 1000 to 10000 | – |

| Compound | IC50 [1] [nM] | IC50 [2] [nM] | IC50 [3] [nM] |
| --- | --- | --- | --- |
| C=C(C)[C@@H]1CC=C(COC(=O)C2=C(C)NC(=S)NC2)CC1 [Compound 96, 6-methyl-2-thioxo-1,2,3,4-tetrahydro-pyrimidine-5-carboxylic acid (s)-(−)-4-isopropenyl-cyclohex-1-enylmethyl ester] | < 400 | < 1000 | – |
| CC1=C(C(=O)OCCc2ccc(Cl)cc2)C(CO)NC(=S)N1 (centres unmarked) [35″, 4-hydroxymethyl-6-methyl-2-thioxo-1,2,3,4-tetrahydro-pyrimidine-5-carboxylic acid 2-(4-chloro-phenyl)-ethyl ester] | 1600 | 1000 to 10000 | – |
| CC1=C(C(=O)OCCCc2cccc3ccccc23)C(CO)NC(=S)N1 (centres unmarked) [24″, 4-hydroxymethyl-6-methyl-2-thioxo-1,2,3,4-tetrahydro-pyrimidine-5-carboxylic acid 3-naphthalen-1-yl-propyl ester] | 800 | < 1000 | – |
| CC1=C(C(=O)OCCSc2nc3ccccc3o2)C(CF)NC(=S)N1 (centres unmarked) [46′, 4-fluoromethyl-6-methyl-2-thioxo-1,2,3,4-tetrahydro-pyrimidine-5-carboxylic acid 2-(benzoxazol-2-ylsulfanyl)-ethyl ester] | 6000 | 1000 to 10000 | – |
| CCCCCCC#CCCOC(=O)C1=C(C)NC(=S)NC1 [Compound 200, 6-methyl-2-thioxo-1,2,3,4-tetrahydro-pyrimidine-5-carboxylic acid dec-3-inyl ester] | – | – | < 400 |
| CC1=C(C(=O)O[C@H](C)c2ccccc2)CNC(=S)N1 [Compound 23, 6-methyl-2-thioxo-1,2,3,4-tetrahydro-pyrimidine-5-carboxylic acid (R)-1-phenyl-ethyl ester] | 5400 | 1000 to 10000 | – |
| CC1=C(C(=O)OCCc2ccsc2)C2(CC2)NC(=S)N1 [13′, 7-methyl-5-thioxo-4,6-diaza-spiro[2.5]oct-7-ene-8-airboxylic acid 2-thiophen-3-yl-ethyl ester] | – | – | 79000 |
| CC1=C(C(=O)OCc2ccc(C)c(C)c2)CNC(=S)N1 [Compound 76, 6-methyl-2-thioxo-1,2,3,4-tetrahydro-pyrimidine-5-carboxylic acid 3,4-dimethyl-benzyl ester] | 600 | < 1000 | – |
| CC1=C(C(=O)OCCCc2ccsc2)C(CO)NC(=S)N1 (centres unmarked) [6″, 4-hydroxymethyl-6-methyl-2-thioxo-1,2,3,4-tetrahydro-pyrimidine-5-carboxylic acid 3-thiophen-3-yl-propyl ester] | 1900 | 1000 to 10000 | – |
| CC1=C(C(=O)OCC2CCC2)CNC(=S)N1 [Compound 80, 6-methyl-2-thioxo-1,2,3,4-tetrahydro-pyrimidine-5-carboxylic acid cyclobutylmethyl ester] | 2300 | 1000 to 10000 | – |
| CC1=C(C(=O)OCCCc2cccc(OC(F)(F)F)c2)CNC(=S)N1 [Compound 106, 6-methyl-2-thioxo-1,2,3,4-tetrahydro-pyrimidine-5-carboxylic acid 3-(3-trifluoromethoxy-phenyl)-propyl ester] | < 400 | < 1000 | – |
| CC1=C(C(=O)OCc2cccc(SC(F)(F)F)c2)CNC(=S)N1 [Compound 164, 6-methyl-2-thioxo-1,2,3,4-tetrahydro-pyrimidine-5-carboxylic acid 3-trifluoromethylsulfanyl-benzyl ester] | < 400 | < 1000 | – |
| CC1=C(C(=O)OCCc2ccccc2C)CNC(=S)N1 [Compound 133, 6-methyl-2-thioxo-1,2,3,4-tetrahydro-pyrimidine-5-carboxylic acid 2-o-tolyl-ethyl ester] | < 400 | < 1000 | – |
| CC1=C(C(=O)OCCc2cc(C)cc(C)c2)C(CO)NC(=S)N1 (centres unmarked) [37″, 4-hydroxymethyl-6-methyl-2-thioxo-1,2,3,4-tetrahydro-pyrimidine-5-carboxylic acid 2-(3,5-dimethyl-phenyl)-ethyl ester] | 800 | < 1000 | – |
| CCc1ccc(CCOC(=O)C2=C(C)NC(=S)NC2)s1 [Compound 266, 6-methyl-2-thioxo-1,2,3,4-tetrahydro-pyrimidine-5-carboxylic acid 2-(5-ethyl-thiophen-2-yl)-ethyl ester] | 600 | < 1000 | – |
| CC1=C(C(=O)OCC2CC2)CNC(=S)N1 [Compound 46, 6-methyl-2-thioxo-1,2,3,4-tetrahydro-pyrimidine-5-carboxylic acid cyclopropylmethyl ester] | 30000 | 10000 to 20000 | – |
| COC(=O)CCCCCCCCCOC(=O)C1=C(C)NC(=S)NC1 [Compound 198, 6-methyl-2-thioxo-1,2,3,4-tetrahydro-pyrimidine-5-carboxylic acid 9-methoxycarbonyl-nonyl ester] | 10000 | 1000 to 10000 | – |
